According to patent US20250084371A1, “CELL MONOLAYER BLOCKING AGENTS AND USES THEREOF” (LUMICKS CA HOLDING B.V., priority 2021, published 2025):

How the values were obtained:
PLL-coated chips = experiment: Binding of Jurkat cells to PLL-coated chips after blocking (z-Movi avidity, no target cells); format: cell-based
Description: (§1) z-Movi® chips (obtained and as available from LUMICKS (<https://lumicks.com/products/z-movi-cell-interaction-studies/>) were coated with Poly-L-Lysine (#P4707-50ML, Sigma) diluted 1:5 in PBS for 10 minutes at room temperature, or with human Fibronectin (#F0895, Sigma) at 0.1 mg/mL overnight at room temperature. The following day the target cells were seeded in serum free RPMI medium, incubated 1 h, and subsequently the medium replaced with complete RPMI medium. The chips were incubated for an additional hour before the blocking reaction. The effector cells were stained with CellTrace™ Far Red dye (Thermo Fisher Scientific) at 1 μM for 15 minutes in PBS at 37° C., then resuspended at 10 million/mL in complete medium and used for the avidity experiments. The stained effector cells (i.e. cells of interest) were introduced in the target cell-seeded flow cell, incubated for 5 minutes, and then a 1 to 1000 pN force ramp was applied throughout 2.5 minutes using z-Movi® operated with the Oceon V1.2 software. At the end of the avidity measurements, the monolayer was stained with a Trypan Blue solution to qualitatively assess the target cell viability. The avidity experiment analysis was performed using Oceon V1.2. […]

[1] = tested on: human fibronectin-coated chips; experiment: Binding of Jurkat cells to human fibronectin-coated chips after blocking (z-Movi avidity, no target cells); format: cell-based
Description: as §1

Raji cells [2] = experiment: Avidity of UNT or FMC63-CAR Jurkat cells to Raji seeded PLL-coated chips after blocking; format: cell-based; conditions: for percentage of effector cells bound to the target cells at the end of the force ramp (1000 pN) / difference in the positive/negative window: PLL; for percentage of effector cells bound to the target cells at the end of the force ramp (1000 pN): mean n=2; for difference in the positive/negative window: CAR minus UNT bound at 1000 pN, Raji; for binding of the CAR sample (cells bound) after blocking: FMC63 CAR Jurkat, from about 80% without blocking; for binding of the CAR sample (cells bound) after blocking / background binding of the UNT sample (cells bound) after blocking: Raji-seeded PLL chips; for background binding of the UNT sample (cells bound) after blocking: UNT Jurkat, from about 50% without blocking
Description: (§2) z-Movi® chips (obtained and as available from LUMICKS (<https://lumicks.com/products/z-movi-cell-interaction-studies/>) were coated with Poly-L-Lysine (#P4707-50ML, Sigma) diluted 1:5 in PBS for 10 minutes at room temperature, or with human Fibronectin (#F0895, Sigma) at 0.1 mg/mL overnight at room temperature. The following day the target cells were seeded in serum free RPMI medium, incubated 1 h, and subsequently the medium replaced with complete RPMI medium. The chips were incubated for an additional hour before the blocking reaction. The effector cells were stained with CellTrace™ Far Red dye (Thermo Fisher Scientific) at 1 μM for 15 minutes in PBS at 37° C., then resuspended at 10 million/mL in complete medium and used for the avidity experiments. The stained effector cells (i.e. cells of interest) were introduced in the target cell-seeded flow cell, incubated for 5 minutes, and then a 1 to 1000 pN force ramp was applied throughout 2.5 minutes using z-Movi® operated with the Oceon V1.2 software. At the end of the avidity measurements, the monolayer was stained with a Trypan Blue solution to qualitatively assess the target cell viability. The avidity experiment analysis was performed using Oceon V1.2.
(§3) The MS(PEG)4 or BS(PEG)5 (Thermo Fisher Scientific) (see FIG. 2) were dissolved in anhydrous DMSO (Merck) then diluted in PBS to obtain a final concentration of 5 mM or as otherwise indicated. The target cell-seeded chips (or coated only with PLL or fibronectin) were rinsed with PBS before introducing the blocking solution (or a PBS solution with DMSO as control sample). The chips were incubated for 15 minutes at room temperature and the reaction was stopped with TBS (50 mM Tris pH7.4, 150 mM NaCl). The chips were subsequently equilibrated with complete medium and used for avidity measurements. Furthermore, blocking was also tested with incubations of 1 hour with serum free RPMI medium, 20% fetal bovine serum (FBS), 50% FBS, 50% human serum (HS), 10% bovine serum albumin (BSA), NALM6 condition medium.
We next validated the use of NHS-based blockers to reduce background binding of the effector cells in the presence of the monolayer. We used as cells of interest a Jurkat cell line transduced to express the FMC63 Chimeric Antigen Receptor (CAR) or untransduced (UNT) as control cells. As target cells we used the Raji cell line, endogenously expressing the CD19 antigen, seeded on PLL coated chips.

Raji cells [3] = experiment: Monolayer integrity/viability (Trypan Blue) of Raji seeded PLL-coated chips after blocking; format: cell-based; conditions: Raji on PLL, vs DMSO vehicle
Description: as §1

Raji cells [4] = experiment: Avidity of UNT or FMC63-CAR primary T cells to Raji seeded PLL-coated chips after blocking; format: cell-based
Description: Untransduced or FMC63-transduced primary CAR T cells were obtained from ProMab Biotechnologies Inc. (Anti-CD19-TF-CD28-CD3z (PMC-152)) propagated with CD3/CD28 dynabeads (Thermo Fisher Scientific) and 90 IU/mL of IL-2 (Miltenyi Biotec), or Untransduced or FMC63 CAR transduced Jurkat were used (Creative Biolabs).
as §2, §3
We then performed the experiments with the blocking agents with primary T cells expressing a FMC63 CAR (or not) layered on Raji cells. We observed that the observations made with Jurkat cells were recapitulated showing a considerable improvement of the negative/positive window on the chips subjected to the blocking reaction (FIG. 7).

CD69 activation marker = experiment: CD69 activation assay, Jurkat co-incubated with blocked Raji cells; format: cell-based; conditions: 1:1, 4 h
Description: Target cells were treated with DMSO or blocking agent using the protocol above, resuspended at 1 million/mL in RPMI complete medium and mixed at 1:1 ratio with the indicated effector cells. For the IFNγ release assay the samples were incubated for 7 h in the incubator before spinning down and use of the supernatant to perform the ELISA (Biolegend, ELISA MAX™ Deluxe Set Human IFNγ). […]

IFNγ = IFNγ release assay (ELISA), primary T cells co-incubated with blocked Raji cells; format: cell-based, human; conditions: 1:1, 7 h
Description: Target cells were treated with DMSO or blocking agent using the protocol above, resuspended at 1 million/mL in RPMI complete medium and mixed at 1:1 ratio with the indicated effector cells. For the IFNγ release assay the samples were incubated for 7 h in the incubator before spinning down and use of the supernatant to perform the ELISA (Biolegend, ELISA MAX™ Deluxe Set Human IFNγ). For the CD69 assay, the target and effector cells prepared as described above were co-incubated for 5 h in the incubator before being stained using anti-CD3 and anti-CD69 antibodies (clone SK7 and FN50, Biolegend).

Raji cells [5] = experiment: Avidity of UNT or FMC63-CAR primary T cells to Raji covalent monolayer on PLL-coated chips; format: cell-based; conditions: 10 mM crosslinker, mean n=2
Description: Untransduced or FMC63-transduced primary CAR T cells were obtained from ProMab Biotechnologies Inc. (Anti-CD19-TF-CD28-CD3z (PMC-152)) propagated with […] CD3/CD28 dynabeads (Thermo Fisher Scientific) and 90 IU/mL of IL-2 (Miltenyi Biotec). Raji cells were used as target cells. Primary CAR-T cells were cultured in RPMI+Glutamax supplemented with 50 μM β-Mercaptoethanol, 5% heat inactivated human serum, and Penicillin-Streptomycin.
z-Movi® chips (obtained and as available from LUMICKS) were coated with Poly-L-Lysine (#P4707-50ML, Sigma) diluted 1:5 in PBS for 10 minutes at room temperature. The following day the target cells were seeded in PBS, incubated 0.75 h, and subsequently the monolayers were left untreated or reacted with BS(PEG)9. For negative control the PLL coated chips were reacted with 5 mM MS(PEG)4 before seeding the Raji cells. The effector cells were stained with CellTrace™ Far Red dye (Thermo Fisher […] Scientific) at 1 μM for 15 minutes in PBS at 37° C., then resuspended at 10 million/mL in complete medium and used for the avidity experiments. The stained effector cells (i.e. cells of interest) were introduced in the target cell-seeded flow cell, incubated for 5 minutes, and then a 1 to 1000 pN force ramp was applied throughout 2.5 minutes using z-Movi® operated with the Oceon® V1.2 software. […]

Hela-CD19 cells [6] = experiment: Avidity of UNT or FMC63-CAR Jurkat to Hela-CD19 seeded PLL-coated chips after blocking; format: cell-based; conditions: Hela-CD19 on PLL, blocker 5 mM; for percentage of effector cells bound to the target cells at the end of the force ramp (1000 pN): mean n=2
Description: as §2
as §3, with “medium. […]” for “medium.”

Hela-CD19 cells [7] = experiment: Avidity of UNT or FMC63-CAR Jurkat to Hela-CD19 seeded fibronectin-coated chips after blocking; format: cell-based; conditions: Hela-CD19 on human fibronectin, blocker 5 mM; for percentage of effector cells bound to the target cells at the end of the force ramp (1000 pN): mean n=2
Description: as §2
as §3, with “medium. […]” for “medium.”

[8] = CAR Jurkat + Raji treated with 5 mM blocker 15 minutes
[9] = UNT Jurkat + Raji treated with 5 mM blocker 15 minutes

In the case of `O=C(CCOCCOCCOCCOCCOCCC(=O)ON1C(=O)CCC1=O)ON1C(=O)CCC1=O` [BS(PEG)5], the “percentage of Jurkat cells bound at the end (1000 pN) of the avidity measurement” value (PLL-coated chips; blocking agent 1 mM) is reported as 92.9%, the “percentage of Jurkat cells bound at the end (1000 pN) of the avidity measurement” value (PLL-coated chips; blocking agent 5 mM) is reported as 1.2% and the “percentage of bound Jurkat cells at the end of the force ramp (1000 pN)” value ([1]; blocking agent 1 mM) is reported as 52.8%. The “percentage of bound Jurkat cells at the end of the force ramp (1000 pN)” value ([1]; blocking agent 5 mM) was 43.2%, the “percentage of effector cells bound to the target cells at the end of the force ramp (1000 pN)” value (shortened to “percentage of effector cells bound”) (Raji cells [2]; CAR (FMC63-transduced) effector cells + Raji, blocker 4.5 mM) was 78.3% and the “difference in the positive/negative window” value (Raji cells [2]; blocker 4.5 mM) was 62.7%. The “binding of the CAR sample (cells bound) after blocking” value (Raji cells [2]) was “about 70%”, the “percentage of effector cells bound” value (Raji cells [2]; UNT (untransduced) effector cells + Raji, blocker 4.5 mM) was 15.6% and the “background binding of the UNT sample (cells bound) after blocking” value (Raji cells [2]) was “about 20%”. The “monolayer integrity (confluency, cell morphology, staining)” value (Raji cells [3]; blocker 4.5 mM) was “No differences in target cell monolayer confluency, cell morphology or staining could be detected”, the “percentage of effector cells bound” value (Raji cells [4]; CAR primary T cells + Raji, blocker 4.5 mM, mean n=2 (FIG. 7A)) was 66.3% and the “percentage of effector cells bound” value (Raji cells [4]; UNT primary T cells + Raji, blocker 4.5 mM, mean n=2 (FIG. 7A)) was 39.9%. For the same molecule, the “percentage of CD69 positive cells” value (CD69 activation marker; [8]) was 30%, the “percentage of CD69 positive cells” value (CD69 activation marker; [9]) was 0.6% and the “amount of IFNγ in co-culture supernatants” value (IFNγ; CAR primary T cells + Raji treated with 4.5 mM blocker 15 minutes) was 1633 pg/mL. For the same molecule, the “amount of IFNγ in co-culture supernatants” value (IFNγ; UNT primary T cells + Raji treated with 4.5 mM blocker 15 minutes) was 11 pg/mL.

With `O=C(CCOCCOCCOCCOCCOCCOCCOCCOCCOCCC(=O)ON1C(=O)CCC1=O)ON1C(=O)CCC1=O` [BS(PEG)9] the “percentage of effector cells bound” value (Raji cells [5]; CAR primary T cells + Raji) was 61.4% and the “percentage of effector cells bound” value (Raji cells [5]; UNT primary T cells + Raji) was 10.3%.

In the case of `COCCOCCOCCOCCC(=O)ON1C(=O)CCC1=O` [MS(PEG)4], the “percentage of effector cells bound” value (Raji cells [2]; CAR (FMC63-transduced) effector cells + Raji, blocker 5 mM) is reported as 84.7%, the “difference in the positive/negative window” value (Raji cells [2]; blocker 5 mM) is reported as 51.9% and the “binding of the CAR sample (cells bound) after blocking” value (Raji cells [2]) is reported as “about 70%”. The “percentage of effector cells bound” value (Raji cells [2]; UNT (untransduced) effector cells + Raji, blocker 5 mM) was 32.8%, the “background binding of the UNT sample (cells bound) after blocking” value (Raji cells [2]) was “about 20%” and the “monolayer integrity (confluency, cell morphology, staining)” value (Raji cells [3]; blocker 5 mM) was “No differences in target cell monolayer confluency, cell morphology or staining could be detected”. The “percentage of effector cells bound” value (Raji cells [4]; CAR primary T cells + Raji, mean n=3 (FIG. 7B)) was 67.8%, the “percentage of effector cells bound” value (Raji cells [4]; UNT primary T cells + Raji, mean n=3 (FIG. 7B)) was 42.6% and the “percentage of effector cells bound” value (Hela-CD19 cells [6]; CAR Jurkat) was 68%. For the same molecule, the “pos/neg window after the blocking reaction” value (Hela-CD19 cells [6]; control window 49.4%) was 63%, the “percentage of effector cells bound” value (Hela-CD19 cells [6]; UNT Jurkat) was 5% and the “percentage of effector cells bound” value (Hela-CD19 cells [7]; CAR Jurkat) was 70.1%. The “pos/neg window after the blocking reaction” value (Hela-CD19 cells [7]; control window 33.3%) was 53.3%, the “percentage of effector cells bound” value (Hela-CD19 cells [7]; UNT Jurkat) was 16.8% and the “percentage of CD69 positive cells” value (CD69 activation marker; [8]) was 27%. For the same molecule, the “percentage of CD69 positive cells” value (CD69 activation marker; [9]) was 0.8%.
